Results on 11 compounds are retold here after ChEMBL document CHEMBL1140619.

Square brackets hold non-standard residues; d marks the D form. Peptide text beside a SMILES is read from it. * marks the point of attachment. Tyr(Nα,Nα-allyl2) = C=CCN(CC=C)[C@@H](Cc1ccc(O)cc1)C(=O)*; Aib = CC(C)(N)C(=O)O

Assay [1] has as its target Delta-type opioid receptor (Rattus norvegicus) (UniProt P33533). Briefly: Agonist activity at rat delta opioid receptor expressed in C6 cells assessed as stimulation of [35S]GTP-gamma-S binding relative to BW373U86. The class given is functional, cell-based.
For assay [2] the target is unchanged. Briefly: Displacement of [3H]naltrindole from rat delta opioid receptor expressed in C6 cells. Type of assay: cell-based.

Chain of Delta-type opioid receptor (Rattus norvegicus) (P33533 whole entry): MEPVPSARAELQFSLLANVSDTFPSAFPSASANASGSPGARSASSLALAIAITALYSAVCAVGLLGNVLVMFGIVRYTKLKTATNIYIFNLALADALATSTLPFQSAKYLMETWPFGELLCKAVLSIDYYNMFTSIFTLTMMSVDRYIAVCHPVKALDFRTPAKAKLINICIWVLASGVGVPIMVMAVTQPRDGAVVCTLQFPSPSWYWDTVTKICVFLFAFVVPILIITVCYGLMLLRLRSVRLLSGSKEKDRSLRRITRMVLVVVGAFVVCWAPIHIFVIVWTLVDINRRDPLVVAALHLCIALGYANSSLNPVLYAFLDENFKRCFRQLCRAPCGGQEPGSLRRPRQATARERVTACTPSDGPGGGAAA

Turning to `CC1(C)SSC(C)(C)C(NC(=O)[C@@H](N)Cc2ccc(O)cc2)C(=O)NCC(=O)N[C@@H](Cc2ccc(Cl)cc2)C(=O)NC1C(=O)O` (stereo in doubt), the Activity in assay [1] amounted to 0.8; in assay [2], 135 nM.

`C=CCN(CC=C)[C@@H](Cc1ccc(O)cc1)C(=O)NC(C)(C)C(=O)NC(C)(C)C(=O)N[C@@H](Cc1ccccc1)C(=O)N[C@@H](CC(C)C)C(=O)O` ({Tyr(Nα,Nα-allyl2)}-[Aib][Aib]FL-OH): the Activity in assay [1] came to 0; in assay [2] it was 37 nM.

As to `C=CCN1C[C@H](C)N([C@H](c2ccc(C(=O)N(CC)CC)cc2)c2cccc(OC)c2)C[C@H]1C`, the Activity was 1.02 in assay [1] and 60 nM in assay [2]. In the same order, the values of `CN1CC[C@]23c4c5ccc(O)c4O[C@H]2C(=O)C2(Cc4ccccc4C2)C[C@@]3(O)[C@H]1C5` are 0.18 and 8.4 nM.

Take `C=CCN1C[C@H](C)N([C@H](c2ccc(C(=O)N(CC)CC)cc2)c2cccc(O)c2)C[C@H]1C`: the Activity in assay [2] amounted to 0.45 nM. For `CC(C)C[C@H](NC(=O)[C@H](Cc1ccccc1)NC(=O)CNC(=O)[C@@H](CO)NC(=O)[C@@H](N)Cc1ccc(O)cc1)C(=O)N[C@H](C(=O)O)[C@@H](C)O`, the Activity is 0.9 in assay [1] and 93 nM in assay [2]. Consider `Oc1ccc2c3c1O[C@H]1c4[nH]c5ccccc5c4C[C@@]4(O)[C@@H](C2)N(CC2CC2)CC[C@]314`, for which, in assay [1], the Activity stood at 0. On to `Oc1ccc2c3c1O[C@H]1c4oc5ccccc5c4C[C@@]4(O)[C@@H](C2)N(CC2CC2)CC[C@]314`, for which, in assay [2], the Activity is 0.037 nM. The same measure, in the same setting: with `O=C1/C(=C/c2ccccc2)C[C@@]2(O)[C@H]3Cc4ccc(O)c5c4[C@@]2(CCN3CC2CC2)[C@H]1O5` the figure was 0.079 nM. As for `CN1CC[C@]23c4c5ccc(O)c4O[C@H]2c2[nH]c4ccccc4c2C[C@@]3(O)[C@H]1C5`, the Activity in assay [1] is 0.12; in assay [2], 6.5 nM. For `CC(C)[C@H](NC(=O)[C@H](CC(=O)O)NC(=O)[C@H](Cc1ccccc1)NC(=O)[C@@H](C)NC(=O)[C@@H](N)Cc1ccc(O)cc1)C(=O)N[C@H](C(=O)NCC(N)=O)C(C)C`, in that order: 0.59 and 81 nM.
